“And” between values parts separate entries of the source, which are not always exact repeats. Equal values may be shown once.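 All cell lines were grown in 96-well plates and treated with compound for 48 hours. GI50 = concentration required for 50% inhibition of growth. TGI marks complete inhibition of growth.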
Tests used:
Assay in all cases: NCI tumour cell line growth inhibition, 48 h
[1] = system: 786-0 renal
[2] = system: A498 renal
[3] = system: A549 NSCLC
[4] = system: ACHN renal
[5] = system: BT-549 breast
[6] = system: CAKI-1 renal
[7] = system: CCRF-CEM leukemia
[8] = system: COLO 205 colon
[9] = system: DU-145 prostate
[10] = system: EKVX NSCLC
[11] = system: HCC-2998 colon
[12] = system: HCT-116 colon
[13] = system: HCT-15 colon
[14] = system: HL-60(TB) leukemia
[15] = system: HOP-62 NSCLC
[16] = system: HOP-92 NSCLC
[17] = system: HS 578T breast
[18] = system: HT29 colon
[19] = system: IGROV1 ovarian
[20] = system: K-562 leukemia
[21] = system: KM12 colon
[22] = system: LOX IMVI melanoma
[23] = system: M14 melanoma
[24] = system: MALME-3M melanoma
[25] = system: MCF7 breast
[26] = system: MDA-MB-231 breast
[27] = system: MDA-MB-435
[28] = system: MOLT-4 leukemia
[29] = system: NCI-H226 lung
[30] = system: NCI-H23 lung

With `CNC(=O)c1ccc(Nc2ncc(C(F)(F)F)c(NCc3nccnc3N(C)S(C)(=O)=O)n2)cc1` the GI50 [1] was 2.17 µM and 1.98 µM and 2.01 µM, the TGI [1] was > 10 µM and 11.6 µM and 18.3 µM and the GI50 [2] was 2.02 µM and 1.59 µM and 1.39 µM. For the same molecule, the TGI [2] was 5.61 µM and 3.89 µM and 4.18 µM, the GI50 [3] was 2.79 µM and 2.94 µM and 3.13 µM and the TGI [3] was > 10 µM and 8.79 µM and 12.1 µM. For the same molecule, the GI50 [4] was 1.67 µM and 1.77 µM and 1.5 µM, the TGI [4] was > 10 µM and 9.44 µM and 8.18 µM and the GI50 [5] was 2.98 µM and 2.06 µM and 2.14 µM. The TGI [5] was > 10 µM and 7.41 µM and 9.73 µM, the GI50 [6] was 1.8 µM and 1.41 µM and 1.88 µM and the TGI [6] was > 10 µM and 8.35 µM and 12.1 µM. The GI50 [7] was 3.27 µM and 3.21 µM and 3.36 µM, the GI50 [8] was 1.32 µM and 1.37 µM and 1.39 µM and the TGI [8] was 2.91 µM and 2.78 µM and 3.17 µM. The GI50 [9] was 2.6 µM and 2.1 µM and 2.75 µM, the TGI [9] was > 10 µM and 10.9 µM and 15.9 µM and the GI50 [10] was 2.49 µM and 2.64 µM. For the same molecule, the TGI [10] was > 10 µM and 10.8 µM, the GI50 [11] was 3.68 µM and 2.54 µM and 3.86 µM and the TGI [11] was > 10 µM and 12.9 µM and 18 µM. For the same molecule, the GI50 [12] was 2.08 µM and 2.4 µM and 1.71 µM, the TGI [12] was > 10 µM and 10.5 µM and 15.1 µM and the GI50 [13] was 2.92 µM and 2.65 µM and 2.57 µM. For the same molecule, the TGI [13] was > 10 µM and 11.3 µM and 12.6 µM, the GI50 [14] was 2.02 µM and 2.19 µM and 2.49 µM and the TGI [14] was 8.1 µM and 6.09 µM and 7.7 µM. The GI50 [15] was 2.16 µM and 2.07 µM and 1.98 µM, the TGI [15] was > 10 µM and 9.71 µM and 9.8 µM and the TGI [16] was 2.37 µM and 6.54 µM and 6.4 µM. The GI50 [17] was 0.283 µM and 2.44 µM and 1.5 µM, the TGI [17] was 7.19 µM and 9.3 µM and 8.29 µM and the GI50 [18] was 3.41 µM and 2.75 µM and 3.21 µM. The TGI [18] was > 10 µM and 8.63 µM and 11.3 µM, the GI50 [19] was 0.881 µM and 1.81 µM and 1.64 µM and the TGI [19] was > 10 µM and 12 µM and 13.1 µM. The GI50 [20] was 4.84 µM and 3.2 µM and 3.42 µM, the TGI [20] was > 10 µM and 17.7 µM and > 61.1 µM and the GI50 [21] was 0.383 µM and 0.309 µM and 0.307 µM. The TGI [21] was > 10 µM and 6.33 µM and 11.3 µM, the GI50 [22] was 2.1 µM and 2.06 µM and 2.02 µM and the TGI [22] was > 10 µM and 8.03 µM and 8.91 µM. The GI50 [23] was 2 µM and 2.27 µM and 1.98 µM, the TGI [23] was > 10 µM and 11.6 µM and 19 µM and the GI50 [24] was 4.1 µM and 2.98 µM and 3.71 µM. For the same molecule, the TGI [24] was > 10 µM and 13.3 µM and 12.7 µM, the GI50 [25] was 1.79 µM and 2.16 µM and 1.88 µM and the TGI [25] was > 10 µM and 9.76 µM and 11.4 µM. For the same molecule, the GI50 [26] was 2.55 µM and 3.12 µM and 2.6 µM, the TGI [26] was > 10 µM and 11.9 µM and the GI50 [27] was 3.55 µM and 3.05 µM and 2.67 µM. For the same molecule, the TGI [27] was > 10 µM and 13.6 µM and 15.2 µM, the GI50 [28] was 3.25 µM and 2.64 µM and 3.09 µM and the TGI [28] was 9.97 µM and 8.58 µM and 8.76 µM. For the same molecule, the GI50 [29] was 1.26 µM and 2.71 µM and 3.28 µM, the TGI [29] was 6.67 µM and 12 µM and 18.2 µM and the GI50 [30] was 2.61 µM and 2.38 µM and 2.81 µM.

From PubChem BioAssay (NCI)
